Data from ChEMBL document CHEMBL5104219, “Pyrazolidine Carboxamide Analogs as Selective Agonists of the Cannabinoid 2 Receptor” (ACS Med Chem Lett, 2022).
pEC50: −log10 of the molar value.

Assays:
Type in all cases: functional, cell-based
[1] = target: T1, Cannabinoid receptor 2 (Homo sapiens, UniProt P34972); assay: Agonist activity at human CB2 receptor expressed in CHO cells assessed as inhibition of accumulation of forskolin-stimulated cAMP level by measuring maximum activation incubated for 35 mins by chemiluminescence based assay relative to control; conditions: filed as agonist
[2] = target: T1, Cannabinoid receptor 2; assay: Agonist activity at human CB2 receptor expressed in CHO cells assessed as inhibition of accumulation of forskolin-stimulated cAMP level incubated for 35 mins by chemiluminescence based assay
[3] = target: T1, Cannabinoid receptor 2; assay: Agonist activity at human CB2 receptor expressed in PathHunter CHO-K1 CNR2 beta-arrestin cells assessed as beta-arrestin recruitment incubated for 3 hrs by plate reader analysis

T1 sequence (P34972 whole entry): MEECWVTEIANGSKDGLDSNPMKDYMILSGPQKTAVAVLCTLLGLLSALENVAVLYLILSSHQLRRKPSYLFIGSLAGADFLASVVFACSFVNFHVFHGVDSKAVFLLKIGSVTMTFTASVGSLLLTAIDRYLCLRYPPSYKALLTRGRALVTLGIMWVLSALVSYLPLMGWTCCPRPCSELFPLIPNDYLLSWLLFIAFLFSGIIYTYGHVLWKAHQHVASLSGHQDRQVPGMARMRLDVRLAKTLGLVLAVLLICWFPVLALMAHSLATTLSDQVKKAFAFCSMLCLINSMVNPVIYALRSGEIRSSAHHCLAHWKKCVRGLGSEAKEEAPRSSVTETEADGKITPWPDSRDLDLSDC

Row | Structure (SMILES) | Emax [1] [%] | pEC50 [2] | pEC50 [3]
1 | Cc1nc(N2CCN(C)CC2)c2nc(-c3ccccc3Cl)n(C3CCOCC3)c2n1 | 52.6 | – | –
2 | CC(C)(CO)c1cc(NC(=O)N2CCCN2c2ccc(C(F)(F)F)cc2)on1 | 99.7 | 7.37 | 6.78
3 | CC(C)(C)c1cc(NC(=O)N2CCCN2c2ccc(C(F)(F)F)cc2)on1 | 114 | – | < 6.00
